Results reported in patent publication US9434743B2, “Indazole derivatives” (TAKEDA PHARMACEUTICAL COMPANY LIMITED, priority 2012, dated 2016).

Experiments:
human MetAP2 enzyme [1] = target: T1, human MetAP2 enzyme (Homo sapiens, UniProt P50579); test: MetAP2 enzyme assay, enzyme complexed with cobalt ions; details: MetAP2 Co pIC50, MetAP2 enzyme complexed with cobalt ions; Met-AMC substrate at Km
human MetAP2 enzyme [2] = target: T1, human MetAP2 enzyme; test: MetAP2 enzyme assay, enzyme complexed with manganese ions; details: MetAP2 Mn pIC50, MetAP2 enzyme complexed with manganese ions; Met-AMC substrate at Km
Method: DNA encoding the full-length sequence of human MetAP2 enzyme is amplified by PCR and cloned into a pFastBac expression vector (Invitrogen). Recombinant baculovirus incorporating the MetAP2 construct is generated by transposition using the Bac-to-Bac system (Invitrogen). The expression of recombinant protein is carried out by infection of Spodoptera frugiperda Sf9 cells (Invitrogen) in 5 L Wave Bioreactors (Wave Biotech). Recombinant protein is isolated from cellular extracts by binding to an SP Hitrap Fast Flow or SP Sepharose (Sigma) column, and the protein is eluted using a NaCl gradient. Partially purified extracts of MetAP2 are further purified by an AKTA FPLC over a Superdex-200 column (GE). The purity of MetAP2 protein is determined on denaturing SDS-PAGE gel.
The results for each well are expressed as percent inhibition and calculated using the equation:

T1 sequence (P50579 whole entry): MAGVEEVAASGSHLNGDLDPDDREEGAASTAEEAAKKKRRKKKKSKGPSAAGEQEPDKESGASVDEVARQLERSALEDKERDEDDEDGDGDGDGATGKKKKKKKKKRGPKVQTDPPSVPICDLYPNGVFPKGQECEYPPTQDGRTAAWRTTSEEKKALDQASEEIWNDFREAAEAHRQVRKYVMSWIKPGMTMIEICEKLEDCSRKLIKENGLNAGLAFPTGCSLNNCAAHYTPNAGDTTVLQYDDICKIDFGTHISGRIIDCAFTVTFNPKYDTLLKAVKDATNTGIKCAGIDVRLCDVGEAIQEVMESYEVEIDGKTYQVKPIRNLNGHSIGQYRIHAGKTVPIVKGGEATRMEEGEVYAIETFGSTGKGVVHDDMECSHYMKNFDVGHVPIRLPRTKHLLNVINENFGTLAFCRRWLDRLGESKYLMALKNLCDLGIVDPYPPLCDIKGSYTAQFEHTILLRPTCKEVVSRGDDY

Compound `Oc1ncccc1-c1cc(C(F)(F)F)cc2[nH]ncc12` [Example 210, 3-(6-(trifluoromethyl)-1H-indazol-4-yl)pyridin-2-ol] has an IC50 (human MetAP2 enzyme [1]) of 0.631 µM and an IC50 (human MetAP2 enzyme [2]) of 0.0126 µM.

`COc1ccc(C(=O)N2CCOCC2)cc1-c1cc(C(F)(F)F)cc2[nH]ncc12` [Example 267, (4-methoxy-3-(6-(trifluoromethyl)-1H-indazol-4-yl)phenyl)(morpholino)methanone] gave an IC50 (human MetAP2 enzyme [1]) of 0.0398 µM and an IC50 (human MetAP2 enzyme [2]) of 0.01 µM.

Work on `O=C(c1cccc(-c2cc(C(F)(F)F)cc3[nH]ncc23)c1)N1CCCC1` [Example 85, pyrrolidin-1-yl(3-(6-(trifluoromethyl)-1H-indazol-4-yl)phenyl)methanone] yielded an IC50 (human MetAP2 enzyme [1]) of 0.0794 µM and an IC50 (human MetAP2 enzyme [2]) of 0.00631 µM.

`COc1ncc(-c2cc(C(F)(F)F)cc3[nH]ncc23)cn1` [Example 246, 4-(2-methoxypyrimidin-5-yl)-6-(trifluoromethyl)-1H-indazole] was tested, and the IC50 (human MetAP2 enzyme [1]) was 0.1 µM and the IC50 (human MetAP2 enzyme [2]) was 0.00316 µM.

For `COc1cncc(-c2cc(C(F)(F)F)cc3[nH]ncc23)c1` [Example 42, 4-(5-methoxypyridin-3-yl)-6-(trifluoromethyl)-1H-indazole], the IC50 (human MetAP2 enzyme [1]) was 0.0631 µM and the IC50 (human MetAP2 enzyme [2]) was 0.00631 µM.

For `CCOC(=O)Cn1cc(-c2cc(C(F)(F)F)cc3[nH]ncc23)cn1` [Example 260, ethyl 2-(4-(6-(trifluoromethyl)-1H-indazol-4-yl)-1H-pyrazol-1-yl)acetate], the IC50 (human MetAP2 enzyme [1]) was 0.1 µM and the IC50 (human MetAP2 enzyme [2]) was 0.00631 µM.

Compound `O=S(=O)(c1ccc(-c2cc(C(F)(F)F)cc3[nH]ncc23)cc1)n1cccn1` [Example 223, 4-(4-(1H-pyrazol-1-ylsulfonyl)phenyl)-6-(trifluoromethyl)-1H-indazole] has an IC50 (human MetAP2 enzyme [1]) of 0.126 µM and an IC50 (human MetAP2 enzyme [2]) of 0.00794 µM.

`CS(=O)(=O)c1cncc(-c2cc(C(F)(F)F)cc3[nH]ncc23)c1` [Example 105, 4-(5-(methylsulfonyl)pyridin-3-yl)-6-(trifluoromethyl)-1H-indazole] showed an IC50 (human MetAP2 enzyme [1]) of 0.316 µM and an IC50 (human MetAP2 enzyme [2]) of 0.01 µM.

With `Cc1cc(-c2cc(C(F)(F)F)cc3[nH]ncc23)n(C)n1` [Example 126, 4-(1,3-dimethyl-1H-pyrazol-5-yl)-6-(trifluoromethyl)-1H-indazole] the IC50 (human MetAP2 enzyme [1]) was 0.0501 µM and the IC50 (human MetAP2 enzyme [2]) was 0.00794 µM.

For `NS(=O)(=O)c1cccc(-c2cc(C(F)(F)F)cc3[nH]ncc23)c1` [Example 329, 3-(6-(trifluoromethyl)-1H-indazol-4-yl)benzenesulfonamide], the IC50 (human MetAP2 enzyme [1]) was 0.0398 µM and the IC50 (human MetAP2 enzyme [2]) was 0.0158 µM.

In the case of `O=C(NCCO)c1ncc(-c2cc(C(F)(F)F)cc3[nH]ncc23)cn1` [Example 286, N-(2-hydroxyethyl)-5-(6-(trifluoromethyl)-1H-indazol-4-yl)pyrimidine-2-carboxamide], the IC50 (human MetAP2 enzyme [1]) is reported as 0.2 µM and the IC50 (human MetAP2 enzyme [2]) is reported as 0.00794 µM.

`Cc1cc(=O)n(C)cc1-c1cc(C(F)(F)F)cc2[nH]ncc12` [Example 403, 1,4-dimethyl-5-(6-(trifluoromethyl)-1H-indazol-4-yl)pyridin-2(1H)-one] was tested, and the IC50 (human MetAP2 enzyme [1]) was 0.0631 µM and the IC50 (human MetAP2 enzyme [2]) was 0.01 µM.

Compound `COc1ccc(-c2cc(C(F)(F)F)cc3[nH]ncc23)c2cccnc12` [Example 113, 8-methoxy-5-(6-(trifluoromethyl)-1H-indazol-4-yl)quinoline] has an IC50 (human MetAP2 enzyme [1]) of 0.02 µM and an IC50 (human MetAP2 enzyme [2]) of 0.00794 µM.

`FC(F)(F)c1cc(-c2cnc3c(c2)OCCN3)c2cn[nH]c2c1` [Example 4, 7-(6-(trifluoromethyl)-1H-indazol-4-yl)-3,4-dihydro-2H-pyrido[3,2-b][1,4]oxazine] gave an IC50 (human MetAP2 enzyme [1]) of 0.0251 µM and an IC50 (human MetAP2 enzyme [2]) of 0.00631 µM.

Compound `O=C1CNc2ncc(-c3cc(C(F)(F)F)cc4[nH]ncc34)cc2N1` [Example 244, 7-(6-(trifluoromethyl)-1H-indazol-4-yl)-3,4-dihydropyrido[2,3-b]pyrazin-2(1H)-one] has an IC50 (human MetAP2 enzyme [1]) of 0.0316 µM and an IC50 (human MetAP2 enzyme [2]) of 0.00501 µM.

`Cc1nc(NS(C)(=O)=O)ccc1-c1cc(C(F)(F)F)cc2[nH]ncc12` [Example 257, N-(6-methyl-5-(6-(trifluoromethyl)-1H-indazol-4-yl)pyridin-2-yl)methanesulfonamide] was tested, and the IC50 (human MetAP2 enzyme [1]) was 0.0501 µM and the IC50 (human MetAP2 enzyme [2]) was 0.00794 µM.
